Test results published in PubChem BioAssay AID1963967 (Molecular Pharmacology Branch, DTP, NCI, 2024).
Values joined by “and” are separate entries in the source; they are usually repeats but may differ in a detail not shown here. Equal entries are not always repeated.

Tested on: 855422-203-R-J1-PDC spheroids with HUVEC/MSC, viability
Experiment: Anticancer human tumor 855422-203-R-J1-PDC patient-derived bladder carcinoma cell line growth inhibition [PI3K]
Conditions: for viability, T/C: stronger effect = lower value
In short: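 Spheroid viability read-out. Co-cultures contained the tumor line plus HUVEC and human MSCs. Each agent was paired with a PI3K inhibitor (inavolisib, alpelisib, duvelisib, copanlisib) across half-log dilutions starting at clinical Cmax, or at 10 microM when Cmax was unknown.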

[1] = curve of first compound, second compound 0.0316 µM
[2] = curve of first compound, second compound 0.1 µM
[3] = curve of first compound, second compound 0.316 µM
[4] = curve of first compound, second compound 1 µM
[5] = curve of first compound, second compound 3.16 µM
[6] = curve of first compound, second compound 10 µM
[7] = second compound 0.0316 µM, first compound 0.0316 µM
[8] = second compound 0.0316 µM, first compound 0.1 µM
[9] = second compound 0.0316 µM, first compound 0.316 µM
[10] = second compound 0.0316 µM, first compound 1 µM
[11] = second compound 0.0316 µM, first compound 3.16 µM
[12] = second compound 0.0316 µM, first compound 10 µM
[13] = second compound 0.1 µM, first compound 0.0316 µM
[14] = second compound 0.1 µM, first compound 0.1 µM
[15] = second compound 0.1 µM, first compound 0.316 µM
[16] = second compound 0.1 µM, first compound 1 µM
[17] = second compound 0.1 µM, first compound 3.16 µM
[18] = second compound 0.1 µM, first compound 10 µM
[19] = second compound 0.316 µM, first compound 0.0316 µM
[20] = second compound 0.316 µM, first compound 0.1 µM
[21] = second compound 0.316 µM, first compound 0.316 µM
[22] = second compound 0.316 µM, first compound 1 µM
[23] = second compound 0.316 µM, first compound 3.16 µM
[24] = second compound 0.316 µM, first compound 10 µM
[25] = second compound 1 µM, first compound 0.0316 µM
[26] = second compound 1 µM, first compound 0.1 µM
[27] = second compound 1 µM, first compound 0.316 µM
[28] = second compound 1 µM, first compound 1 µM
[29] = second compound 1 µM, first compound 3.16 µM
[30] = second compound 1 µM, first compound 10 µM
[31] = second compound 3.16 µM, first compound 0.0316 µM
[32] = second compound 3.16 µM, first compound 0.1 µM
[33] = second compound 3.16 µM, first compound 0.316 µM
[34] = second compound 3.16 µM, first compound 1 µM
[35] = second compound 3.16 µM, first compound 3.16 µM
[36] = second compound 3.16 µM, first compound 10 µM
[37] = second compound 10 µM, first compound 0.0316 µM
[38] = second compound 10 µM, first compound 0.1 µM
[39] = second compound 10 µM, first compound 0.316 µM
[40] = second compound 10 µM, first compound 1 µM
[41] = second compound 10 µM, first compound 3.16 µM
[42] = second compound 10 µM, first compound 10 µM
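Note: agents incubated with spheroids for one week before read-out.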
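Throughout, for viability, T/C: 100% = DMSO vehicle-treated control wells.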

Compound: CC(Cn1ccc(-c2ccc(C#N)c(Cl)c2)n1)NC(=O)c1cc(C(C)O)[nH]n1 (configuration not stated) + CC(Nc1ncnc2nc[nH]c12)c1cc2cccc(Cl)c2c(=O)n1-c1ccccc1
- IC50 [1]: > 10 µM
- IC50 [2]: > 10 µM
- IC50 [3]: > 10 µM
- IC50 [4]: > 10 µM
- IC50 [5]: > 10 µM
- IC50 [6]: > 10 µM
- viability, T/C [7]: 105%
- viability, T/C [8]: 93.3%
- viability, T/C [9]: 113%
- viability, T/C [10]: 98.3%
- viability, T/C [11]: 91.6%
- viability, T/C [12]: 67.8%
- viability, T/C [13]: 105%
- viability, T/C [14]: 107%
- viability, T/C [15]: 106%
- viability, T/C [16]: 105%
- viability, T/C [17]: 90.3%
- viability, T/C [18]: 82.8%
- viability, T/C [19]: 97%
- viability, T/C [20]: 104%
- viability, T/C [21]: 96.6%
- viability, T/C [22]: 112%
- viability, T/C [23]: 89.9%
- viability, T/C [24]: 77.4%
- viability, T/C [25]: 92.9%
- viability, T/C [26]: 108%
- viability, T/C [27]: 107%
- viability, T/C [28]: 103%
- viability, T/C [29]: 95.5%
- viability, T/C [30]: 95.7%
- viability, T/C [31]: 97.3%
- viability, T/C [32]: 91.1%
- viability, T/C [33]: 108%
- viability, T/C [34]: 101%
- viability, T/C [35]: 90.4%
- viability, T/C [36]: 78.7%
- viability, T/C [37]: 88.5%
- viability, T/C [38]: 84.9%
- viability, T/C [39]: 89.5%
- viability, T/C [40]: 82.3%
- viability, T/C [41]: 74.5%
- viability, T/C [42]: 70%

Compound: CCCS(=O)(=O)Nc1ccc(F)c(C(=O)c2c[nH]c3ncc(-c4ccc(Cl)cc4)cc23)c1F
- viability, T/C (compound 0.1 µM): 96.7% [middle of 4 runs]
- viability, T/C (compound 0.316 µM): 108% (2×) and 99.2% and 92.2%
- viability, T/C (compound 1 µM): 87.6% [middle of 4 runs]
- viability, T/C (compound 3.16 µM): 65.7% [middle of 4 runs]
- viability, T/C (compound 10 µM): 0.53% [middle of 4 runs]
- IC50 (curve of compound): 4.16 µM [middle of 4 runs]

Compound: CCCS(=O)(=O)Nc1ccc(F)c(C(=O)c2c[nH]c3ncc(-c4ccc(Cl)cc4)cc23)c1F + Cc1nc(NC(=O)N2CCCC2C(N)=O)sc1-c1ccnc(C(C)(C)C(F)(F)F)c1
- IC50 [1]: 3.91 µM
- IC50 [2]: 3.9 µM
- IC50 [3]: 4.42 µM
- IC50 [4]: 3.53 µM
- IC50 [5]: < 0.0316 µM
- IC50 [6]: < 0.0316 µM
- viability, T/C [7]: 97.7%
- viability, T/C [8]: 89.5%
- viability, T/C [9]: 109%
- viability, T/C [10]: 82.5%
- viability, T/C [11]: 62.3%
- viability, T/C [12]: 0.1%
- viability, T/C [13]: 88.2%
- viability, T/C [14]: 90.2%
- viability, T/C [15]: 100%
- viability, T/C [16]: 90.7%
- viability, T/C [17]: 61.1%
- viability, T/C [18]: 0.16%
- viability, T/C [19]: 86.4%
- viability, T/C [20]: 87.4%
- viability, T/C [21]: 99.1%
- viability, T/C [22]: 85.3%
- viability, T/C [23]: 70.8%
- viability, T/C [24]: 0.13%
- viability, T/C [25]: 71.4%
- viability, T/C [26]: 74%
- viability, T/C [27]: 68.9%
- viability, T/C [28]: 72.8%
- viability, T/C [29]: 53.6%
- viability, T/C [30]: 0.11%
- viability, T/C [31]: 45.3%
- viability, T/C [32]: 46.2%
- viability, T/C [33]: 38.4%
- viability, T/C [34]: 44%
- viability, T/C [35]: 25.9%
- viability, T/C [36]: 0.29%
- viability, T/C [37]: 25.3%
- viability, T/C [38]: 17.9%
- viability, T/C [39]: 23.2%
- viability, T/C [40]: 23.5%
- viability, T/C [41]: 13.6%
- viability, T/C [42]: 0.19%

Compound: C[C@@H](NC(=O)c1ncnc(N)c1Cl)c1ncc(C(=O)Nc2cc(C(F)(F)F)c(Cl)cn2)s1 + CC(Nc1ccc2c(c1)OCCn1cc(N3C(=O)OCC3C(F)F)nc1-2)C(N)=O
- IC50 (curve of first compound, second compound 0.00316 µM): > 10 µM
- IC50 (curve of first compound, second compound 0.01 µM): > 10 µM
- IC50 [1]: > 10 µM
- IC50 [2]: > 10 µM
- IC50 [3]: < 0.0316 µM
- IC50 [4]: < 0.0316 µM
- viability, T/C (second compound 0.00316 µM, first compound 0.0316 µM): 106%
- viability, T/C (second compound 0.00316 µM, first compound 0.1 µM): 83%
- viability, T/C (second compound 0.00316 µM, first compound 0.316 µM): 122%
- viability, T/C (second compound 0.00316 µM, first compound 1 µM): 83.3%
- viability, T/C (second compound 0.00316 µM, first compound 3.16 µM): 116%
- viability, T/C (second compound 0.00316 µM, first compound 10 µM): 109%
- viability, T/C (second compound 0.01 µM, first compound 0.0316 µM): 99.8%
- viability, T/C (second compound 0.01 µM, first compound 0.1 µM): 86.2%
- viability, T/C (second compound 0.01 µM, first compound 0.316 µM): 85.4%
- viability, T/C (second compound 0.01 µM, first compound 1 µM): 84.9%
- viability, T/C (second compound 0.01 µM, first compound 3.16 µM): 118%
- viability, T/C (second compound 0.01 µM, first compound 10 µM): 98.4%
- viability, T/C [7]: 79.8%
- viability, T/C [8]: 85.4%
- viability, T/C [9]: 102%
- viability, T/C [10]: 83%
- viability, T/C [11]: 95.5%
- viability, T/C [12]: 69.3%
- viability, T/C [13]: 58.7%
- viability, T/C [14]: 61.5%
- viability, T/C [15]: 80%
- viability, T/C [16]: 68%
- viability, T/C [17]: 81.8%
- viability, T/C [18]: 35%
- viability, T/C [19]: 47.3%
- viability, T/C [20]: 49.1%
- viability, T/C [21]: 49.7%
- viability, T/C [22]: 54%
- viability, T/C [23]: 43.4%
- viability, T/C [24]: 23.9%
- viability, T/C [25]: 34.8%
- viability, T/C [26]: 40.4%
- viability, T/C [27]: 32.6%
- viability, T/C [28]: 33.6%
- viability, T/C [29]: 30.9%
- viability, T/C [30]: 14.1%
